Laboratory results taken from patent US4962109A, “Insecticidally and acaricidally active pyrimidine esters and intermediates therefor” (Imperial Chemical Industries PLC, priority 1985, dated 1990).

Key:
Type in all cases: in vivo
[1] = test system: Musca domestica (houseflies - adults); experiment: Knockdown test on houseflies - adults (MD/KD), Cotton wool/sugar; conditions: 500 ppm, 4 hours, read-out: MD/KD grading of knockdown
Method: (§1) The activity of the Product was determined using a variety of insect pests. The Product was used in the form of liquid preparations containing 500, 250 or 100 parts per million (ppm) by weight of the Product. The preparations were made by dissolving the Product in acetone and diluting the solutions with water containing 0.01% by weight of a wetting agent sold under the trade name "LISSAPOL" NX until the liquid preparations contained the required concentration of the Product. "Lissapol" is a Registered Trade Mark.
(§2) The test procedure adopted with regard to each pest was basically the same and comprised supporting a number of the pests on a medium which was usually a host plant or a foodstuff on which the pests feed, and treating either or both the pests and the medium with the preparations. The mortality of the pests was then assessed at periods usually varying from one to three days after the treatment.
In the case of the species Musca domestica (housefly), additional tests to determine the knockdown effect of the compounds were performed. PG,163
(§3) The results of the tests are given in Table III for each of the Products, at the rate in parts per million given in the second column as a grading of mortality designated as A, B or C wherein A indicates 80-100% mortality or knockdown, B indicates 50-79% mortality or knockdown and C indicates less than 50% mortality or knockdown.

[2] = test system: Myzus persicae (aphids); experiment: Contact test on aphids (MP), Chinese Cabbage leaf, mortality; conditions: 72 h, 500 ppm, contact, 3 days, read-out: MP grading of mortality
Method: as §1, §2, §3

[3] = test system: Nephotettix cincticeps (green leaf hopper - nymphs); experiment: Contact test on green leaf hopper nymphs (NC), Rice plant, mortality; conditions: 48 h, 500 ppm, contact, 2 days, read-out: NC grading of mortality
Method: as §1, §2, §3
NC Nephotettix cincticeps

[4] = test system: Diabrotica balteata (rootworm larvae); experiment: Residual test on rootworm larvae (DB), Filter paper/maize seed, mortality; conditions: 48 h, 500 ppm, residual, 2 days, read-out: DB grading of mortality
Method: as §1, §2, §3

[5] = test system: Tetranychus urticae (spider mites - adult); experiment: Contact test on spider mites - adult (TUa), French bean leaf, mortality; conditions: 72 h, 500 ppm, contact, 3 days, read-out: TUa grading of mortality
Method: as §1, §2, §3

[6] = test system: Spodoptera exigua (lesser army worm - larvae); experiment: Residual test on lesser army worm larvae (SP), Cotton leaf, mortality; conditions: 48 h, 500 ppm, residual, 2 days, read-out: SP grading of mortality
Method: as §1, §2, §3
(lesser army worm - larvae)

[7] = test system: Blattella germanica (cockroach nymphs); experiment: Contact test on cockroach nymphs (BG/C), Plastic pot, mortality; conditions: 48 h, 500 ppm, contact, 2 days, read-out: BG/C grading of mortality
Method: as §1, §2, §3
BG/C Blattella germanica

[8] = test system: Musca domestica (houseflies - adults); experiment: Contact test on houseflies - adults (MD), Cotton wool/sugar, mortality; conditions: 72 h, 500 ppm, contact, 3 days, read-out: MD grading of mortality
Method: as §1, §2, §3

[9] = test system: Tetranychus urticae (spider mites - ova); experiment: Contact test on spider mites - ova (TUe), French bean leaf, mortality; conditions: 144 h, 500 ppm, contact, 6 days, read-out: TUe grading of mortality
Method: as §1, §2, §3

[10] = test system: Heliothis virescens (tobacco budworm - larvae); experiment: Residual test on tobacco budworm larvae (HV), Cotton leaf, mortality; conditions: 48 h, read-out: HV grading of mortality
Method: as §1, §2, §3
(tobacco budworm - larvae)

SMILES | pest or weed control at 500 ppm [1] | mortality at 500 ppm [2] | mortality at 500 ppm [3] | mortality at 500 ppm [4] | mortality at 500 ppm [5] | mortality at 500 ppm [6] | mortality at 500 ppm [7] | mortality at 500 ppm [8] | mortality at 500 ppm [9] | mortality at 500 ppm [10]
CSc1c(F)c(F)c(COC(=O)C(c2cnc(C(C)(C)C)nc2)C(C)(C)C)c(F)c1F (racemic) [Compound 183] | 80 to 100% | < 50% | 80 to 100% | < 50% | 80 to 100% | 80 to 100% | < 50% | 80 to 100% | < 50% | 80 to 100%
CC(C)OC(=O)c1c(F)c(F)c(COC(=O)C(c2cnc(C(C)(C)C)nc2)C(C)(C)C)c(F)c1F (racemic) [Compound 171, 4-[(prop-2-yl)oxycarbonyl]-2,3,5,6-tetrafluorobenzyl (RS)-2-[2-(1,1-dimethylethyl)pyrimidin-5-yl]-3,3-dimethylbutanoate] | < 50% | < 50% | < 50% | < 50% | 80 to 100% | < 50% | < 50% | < 50% | < 50% | < 50%
CCC(C)(C)c1ncc([C@H](C(=O)O[C@H](C)c2cccc(Oc3ccccc3)n2)C(C)(C)C)cn1 (racemic) [Compound 57, (RS)-1-(6-phenoxypyrid-2-yl)ethyl (RS)-2-[2-(1,1-dimethylpropyl)pyrimidin-5-yl]-3,3dimethylbutanoate] | 80 to 100% | 80 to 100% | 80 to 100% | < 50% | 80 to 100% | 80 to 100% | < 50% | 80 to 100% | < 50% | 80 to 100%
COCc1c(F)c(F)c(COC(=O)C(c2cnc(C3CC3)nc2)C(C)(C)C)c(F)c1F (racemic) [Compound 135, 2,3,5,6-tetrafluoro-4-(methoxymethyl)benzyl (RS)-2-(2-cyclopropylpyrimidin-5-yl)-3,3-dimethylbutanoate] | 80 to 100% | 80 to 100% | 80 to 100% | 80 to 100% | 80 to 100% | 80 to 100% | < 50% | 80 to 100% | 80 to 100% | < 50%
CC(C)(C)c1ncc(C(C(=O)OCc2c(F)c(F)c(CC3CC3)c(F)c2F)C(C)(C)C)cn1 (racemic) [Compound 179, 4-(cyclopropylmethyl)-2,3,5,6-tetrafluorobenzyl (RS)-2-[2-(1,1-dimethylethyl)pyrimidin-5-yl]-3,3-dimethylbutanoate] | < 50% | 80 to 100% | 80 to 100% | < 50% | 80 to 100% | < 50% | < 50% | < 50% | < 50% | < 50%
CC(=O)OCc1c(F)c(F)c(COC(=O)C(c2cnc(C(C)(C)C)nc2)C(C)(C)C)c(F)c1F (racemic) [Compound 166, 2,3,5,6-tetrafluoro-4-(acetyloxymethyl)benzyl (RS)-2-[2-(1,1-dimethylethyl)pyrimidin-5-yl]-3,3-dimethylbutanoate] | < 50% | 80 to 100% | 50 to 79% | 80 to 100% | 80 to 100% | 80 to 100% | < 50% | < 50% | 80 to 100% | < 50%
